Our source for the IC50 values is patent US20020160983A1, “Substituted benzopyranones as telomerase inhibitors” (priority 2001, published 2002).

Chain of telomerase enzyme (O14746 whole entry): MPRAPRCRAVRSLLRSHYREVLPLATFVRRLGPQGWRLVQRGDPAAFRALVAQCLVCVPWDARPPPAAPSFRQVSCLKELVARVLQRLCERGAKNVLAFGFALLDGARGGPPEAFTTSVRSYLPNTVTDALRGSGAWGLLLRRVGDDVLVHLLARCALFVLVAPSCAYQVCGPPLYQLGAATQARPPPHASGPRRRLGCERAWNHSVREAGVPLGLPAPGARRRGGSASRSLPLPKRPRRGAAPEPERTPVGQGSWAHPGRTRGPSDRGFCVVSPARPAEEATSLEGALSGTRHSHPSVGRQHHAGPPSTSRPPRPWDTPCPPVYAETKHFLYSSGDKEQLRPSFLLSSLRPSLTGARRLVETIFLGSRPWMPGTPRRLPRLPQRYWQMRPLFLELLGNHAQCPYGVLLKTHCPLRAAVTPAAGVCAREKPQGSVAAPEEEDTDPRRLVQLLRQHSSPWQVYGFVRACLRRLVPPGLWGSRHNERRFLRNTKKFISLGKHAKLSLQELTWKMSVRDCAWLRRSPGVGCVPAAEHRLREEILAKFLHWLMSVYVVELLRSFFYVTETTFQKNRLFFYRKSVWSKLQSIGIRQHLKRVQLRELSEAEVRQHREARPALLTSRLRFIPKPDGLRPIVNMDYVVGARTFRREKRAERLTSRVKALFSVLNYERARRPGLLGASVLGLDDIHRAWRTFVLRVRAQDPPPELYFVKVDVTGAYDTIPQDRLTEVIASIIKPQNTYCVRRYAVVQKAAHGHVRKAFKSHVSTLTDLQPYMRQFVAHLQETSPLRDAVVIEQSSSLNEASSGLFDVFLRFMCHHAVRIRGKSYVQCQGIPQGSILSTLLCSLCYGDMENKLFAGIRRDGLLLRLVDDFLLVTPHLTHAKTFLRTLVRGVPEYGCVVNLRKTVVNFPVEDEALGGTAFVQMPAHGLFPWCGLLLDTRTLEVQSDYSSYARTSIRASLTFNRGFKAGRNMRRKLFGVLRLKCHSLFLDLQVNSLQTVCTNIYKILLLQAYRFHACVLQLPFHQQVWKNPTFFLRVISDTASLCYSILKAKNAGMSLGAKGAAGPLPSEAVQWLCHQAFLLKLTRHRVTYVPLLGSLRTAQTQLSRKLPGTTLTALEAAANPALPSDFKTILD

The target of this assay is telomerase enzyme (Homo sapiens, UniProt O14746). Description: Flash Plate-based telomerase activity assay. Format: biochemical. The note with it: two hours of incubation at 37°, biotinylated oligo primer, radioactive labeled probe. Here is the method:
The telomerase activity of the compounds has been evaluated using a Flash Plate-based assay.
Briefly the assay mixture is constituted of:
telomerase enzyme diluted in a buffer, the composition of which has been selected to maintain the enzyme activity stable along the duration of the assay.
dNTPs, deoxynucleotides 5′-triphosphate.
biotinylated oligo as primer.
increasing concentrations of test compounds/positive control.
After two hours of incubation at 37° degrees the telomeric repeats added by telomerase are evaluated by hybridization in solution with a 3′-radioactive labeled short oligonucleotide probe.
The extent of hybridization is then quantitated by transferring the reaction mixture in a streptavidin-coated flash plate, where the binding between biotin and streptavidin occurs.
The telomerase activity is proportional to the radioactivity measured and the inhibitory activity of the compounds is evaluated as IC50 using the Sigma Plot fit program.
With the above-described method IC50 values of the compounds of the present invention were determined.
For orientation: IC50 means the midpoint of a concentration-inhibition curve. For the compound `O=c1cc(-c2ccccc2)oc2c(O)c(O)ccc12` [Compound 1, 7,8-dihydroxy-2-phenyl-4H-chromen-4-one], the IC50 was 33 µM.

Take `O=c1cc(-c2ccc(O)cc2)oc2c(O)c(O)ccc12` [Compound 2, 7,8-dihydroxy-2-(4-hydroxyphenyl)-4H-chromen-4-one]: the IC50 amounted to 3 µM.

For the compound `O=c1cc(-c2ccc(O)c(O)c2)oc2c(O)c(O)ccc12` [Compound 3, 2-(3,4-dihydroxyphenyl)-7,8-dihydroxy-4H-chromen-4-one], the IC50 amounted to 0.3 µM.

Regarding `O=c1cc(-c2ccccc2O)oc2c(O)c(O)ccc12` [Compound 4, 7,8-dihydroxy-2-(2-hydroxyphenyl)-4H-chromen-4-one], the IC50 turned out to be 25.3 µM.

With `O=c1cc(-c2cccc(O)c2)oc2c(O)c(O)ccc12` [Compound 5, 7,8-dihydroxy-2-(3-hydroxyphenyl)-4H-chromen-4-one], the IC50 was found to be 34 µM.

Regarding `COc1ccc(-c2cc(=O)c3ccc(O)c(O)c3o2)cc1OC` [Compound 7, 7,8-dihydroxy-2-(3,4-dimethoxyphenyl)-4H-chromen-4-one], the IC50 was 12 µM.

Take `CC(=O)Oc1ccc(-c2cc(=O)c3ccc(OC(C)=O)c(OC(C)=O)c3o2)cc1OC(C)=O` [Compound 14, 2-(3,4-diacetoxyphenyl)-7,8-diacetoxy—4H-chromen-4-one]: the IC50 came out at 15 µM.

For the compound `COc1ccc(-c2cc(=O)c3ccc(OC)c(OC)c3o2)cc1OC` [Compound 24, 7,8-dimethoxy-2-(3,4-dimethoxyphenyl)-4H-chromen-4-one], the IC50 was > 40 µM.

Consider `O=c1c(Cl)c(-c2ccc(O)c(O)c2)oc2c(O)c(O)ccc12` [Compound 37, 3-chloro-2-(3,4-dihydroxyphenyl)-7,8-dihydroxy-4H-chromen-4-one], for which the IC50 was 0.8 µM.

For the compound `COc1ccc(-c2oc3c(OC)c(OC)ccc3c(=O)c2Cl)cc1OC` [Compound 38, 3-chloro-2-(3,4-dimethoxyphenyl)-7,8-dimethoxy-4H-chromen-4-one], the IC50 was > 40 µM.

Turning to `N#Cc1c(-c2ccc(O)c(O)c2)oc2c(O)c(O)ccc2c1=O` [Compound 39, 3-cyano-2-(3,4-dihydroxyphenyl)-7,8-dihydroxy-4H-chromen-4-one], the IC50 amounted to 0.13 µM.

For the compound `O=c1c(F)c(-c2ccc(O)c(O)c2)oc2c(O)c(O)ccc12` [Compound 41, 3-fluoro-2-(3,4-dihydroxyphenyl)-7,8-dihydroxy-4H-chromen-4-one], the IC50 was determined as 0.6 µM.

Take `O=c1cc(-c2cccc(Cl)c2)oc2c(O)c(O)ccc12` [Compound 45, 2-(3-chlorophenyl)-7,8-dihydroxy-4H-chromen-4-one]: the IC50 came out at 30 µM.

Regarding `O=c1cc(-c2ccc(Cl)c(Cl)c2)oc2c(O)c(O)ccc12` [Compound 46, 2-(3,4-dichlorophenyl) -7,8-dihydroxy-4H-chromen-4-one], the IC50 was found to be 14.3 µM.

Consider `O=c1cc(-c2ccc(O)c(O)c2)oc2c(O)c(O)c(Cl)cc12` [Compound 49, 6-chloro-2-(3,4-dihydroxyphenyl)-7,8-dihydroxy-4H-chromen-4-one], for which the IC50 came to 0.34 µM.

Turning to `COc1ccc(-c2cc(=O)c3cc(Cl)c(OC)c(OC)c3o2)cc1OC` [Compound 50, 6-chloro-2-(3,4-dimethoxyphenyl)-7,8-dimethoxy-4H-chromen-4-one], the IC50 came to 5.4 µM.

On to `COc1ccc2c(=O)cc(-c3ccc(N)c(N)c3)oc2c1OC` [Compound 51, 2-(3,4-diaminophenyl)-7,8-dimethoxy-4H-chromen-4-one], for which the IC50 is 7.4 µM.

As for `Nc1ccc(-c2cc(=O)c3ccc(O)c(O)c3o2)cc1N` [Compound 52, 2-(3,4-diaminophenyl)-7,8-dihydroxy-4H-chromen-4-one], the IC50 was 3.6 µM.

Consider `COc1ccc2c(=O)cc(-c3ccc(NC(C)=O)c(NC(C)=O)c3)oc2c1OC` [Compound 58, N-[2-(acetylamino)-4-(7,8-dimethoxy-4-oxo-4H-chromen-2-yl)phenyl]acetamide], for which the IC50 is > 40 µM.

On to `COc1ccc2c(=O)cc(-c3ccc4[nH]cnc4c3)oc2c1OC` [Compound 61, 2-(1H-benzimidazol-5-yl)-7,8-dimethoxy-4H-chromen-4-one], for which the IC50 was determined as 2.2 µM.

For the compound `COc1ccc2c(=O)cc(-c3ccc4[nH]nnc4c3)oc2c1OC` [Compound 65, 2-(1H-1,2,3-benzotriazol-5-yl)-7,8-dimethoxy-4H-chromen-4-one], the IC50 is > 40 µM.

Regarding `COc1ccc2c(=O)cc(-c3ccc4[nH]c(=O)[nH]c4c3)oc2c1OC` [Compound 67, 5-(7,8-dimethoxy-4-oxo-4H-chromen-2-yl)-1,3-dihydro-2H-benzimidazol-2-one], the IC50 came to 19 µM.

In the case of `COc1ccc2c(=O)cc(-c3ccc(O)c(O)c3)oc2c1O` [Compound 78, 8-hydroxy-7-methoxy-2-(3,4-dihydroxyphenyl)-4H-chromen-4-one], the IC50 came out at 7.8 µM.

In the case of `COc1ccc(-c2cc(=O)c3ccc(O)c(O)c3o2)cc1O` [Compound 79, 7,8-dihydroxy-2-(3-hydroxy-4-methoxyphenyl)-4H-chromen-4-one], the IC50 was 11.7 µM.

For the compound `COc1ccc(-c2cc(=O)c3ccc(OC)c(OC)c3o2)cc1O` [Compound 87, 7,8-dimethoxy-2-(3-hydroxy-4-methoxyphenyl)-4H-chromen-4-one], the half-maximal inhibitory concentration (IC50) was 8.7 µM.

Turning to `CC(=O)Oc1ccc(-c2cc(=O)c3ccc(O)c(O)c3o2)cc1OC(C)=O` [Compound 90, 2-(3,4-diacetoxyphenyl)-7,8-dihydroxy-4H-chromen-4-one], the IC50 was found to be 0.64 µM.
